Assay results published in patent US20260226069A1, “GCN2 AND PERK KINASE MODULATORS AND METHODS OF USE THEREOF” (Deciphera Pharmaceuticals, LLC, priority 2023, published 2026).

What was measured:
[1] = tested on: ATF4 in Thapsigargin stimulated CCRF-CEM cells; assay: CCRF-CEM TG ATF4 ELISA, phenotypic assay for cellular inhibition of PERK preactivated by thapsigargin; format: cell-based; conditions: Homo sapiens, 3 h, compound three hours then 1 μM thapsigargin for an additional hour
Procedure: CCRF-CEM TG ATF4 ELISA, a Phenotypic Assay for Cellular Inhibition of PERK Preactivated by Thapsigargin (TG)
CCRF-CEM leukemia cells (catalog #CCL-116) were obtained from the American Type Culture Collection (ATTC, Manassas, VA). Briefly, cells were grown in RPMI-1640 medium supplemented with 10% heat-inactivated fetal bovine serum (Invitrogen, Carlsbad, CA) and 1% Penicillin/Streptomycin/L-Glutamine at 37° C., 5% CO2, and 95% humidity. Cells were expanded until reaching one million cells per mL at which time they were subcultured or harvested for assay use. One million five hundred thousand cells per well in 1 mL complete growth medium were dispensed into 12-well plates and incubated overnight. A serial dilution of test compound was added and cells were incubated at 37° C., 5% CO2, and 95% for three hours, then 1 μM thapsigargin was added and cells were incubated for an additional hour at 37° C., 5% CO2, and 95%. Cells were lysed then ATF4 levels were measured using an ELISA assay (Proteintech, Rosemont, IL). Absorbance was measured at 450 nm and 544 nM using a Synergy2 or equivalent reader (Biotek, Winooski VT). Data was analyzed using PRISM software (Graphpad, San Diego, CA) to calculate IC50 values.

[2] = tested on: ASNase treated CCRF-CEM cells; assay: CCRF-CEM ASNase cell proliferation assay, phenotypic assay for cellular inhibition of GCN2; format: cell-based; conditions: Homo sapiens, 1 mU/mL ASNase, 72 h, resazurin
Procedure: CCRF-CEM ASNase Cell Proliferation Assay, a Phenotypic Assay for Cellular Inhibition of GCN2.
CCRF-CEM leukemia cells (catalog #CCL-116) were obtained from the American Type Culture Collect (ATTC, Manassas, VA). Cells were grown in RPMI-1640 medium supplemented with 10% heat-inactivated fetal bovine serum (Invitrogen, Carlsbad, CA) and 1% Penicillin/Streptomycin/L-Glutamine at 37° C., 5% CO2, and 95% humidity. Cells were expanded until reaching one million cells per mL at which time they are subcultured or harvested for assay use. Ten thousand cells per well in 200 μL RPMI-1640 supplemented with 10% heat-inactivated fetal bovine serum and 1% Penicillin/Streptomycin were dispensed into a 96-well black clear bottom plate. A serial dilution of test compound and 1 mU/mL ASNase was added in triplicate and plates were incubated for 72 h at 37° C., 5% CO2, and 95% humidity. At the end of the incubation, 40 μL of a […] solution of resazurin (Sigma, St. Louis, MO) in PBS was added to each well of the plate and plates were incubated for an additional 6 h at 37° C., 5% CO2, and 95% humidity. Plates were read on a Synergy2 or equivalent reader (Biotek, Winooski VT) using an excitation of 540 nm and an emission of 600 nm. Data was analyzed using GraphPad Prism software (GraphPad, San Diego, CA) to calculate IC50 values.

PERK kinase = target: T1, PERK kinase (Homo sapiens, UniProt Q9NZJ5, A704S); assay: Biochemical assay for PERK (coupled pyruvate kinase/lactate dehydrogenase assay); conditions: 10 nM PERK, 1 mM ATP, reaction rate 2-3 h time frame, 30° C.
T1 construct: GST (with thrombin site LVPRGS); purchased Beryllium
Procedure: Biochemical Assay for PERK
Activity of PERK kinase was determined spectroscopically using a coupled pyruvate kinase/lactate dehydrogenase assay that continuously monitors the ATP hydrolysis-dependent oxidation of NADH (Science, 2000, 289, 1938-1942). Assays were conducted in 384-well plates (100 μL final volume) using 10 nM PERK (from Beryllium), 0.25 mg/mL Myelin Basic Protein substrate, 1.5 units pyruvate kinase, 2.1 units lactate dehydrogenase, 1 mM phosphoenol pyruvate, 0.28 mM NADH and 1 mM ATP in assay buffer (100 mM Tris, pH 7.5, 15 mM MgCl2, 0.5 mM DTT, 0.004% (w/v) BSA, and 0.004% Triton X-100). Inhibition of PERK was measured by adding serial diluted test compound (final assay concentration of 1% DMSO). A decrease in absorption at 340 nm was monitored continuously for 6 hours at 30° C. on a multi-mode microplate reader (BioTek). The reaction rate was calculated using the 2-3 h time frame. The reaction rate at each concentration of compound was converted to percent inhibition using controls (i.e., reaction with no test compound and reaction with a known inhibitor) and IC50 values were calculated using software routines in Prism (GraphPad software).

GCN2 kinase = target: T2, GCN2 kinase (Homo sapiens, UniProt Q9P2K8); assay: Biochemical assay for GCN2 (TR-FRET kinase activity assay); conditions: 2 nM GCN2, 1 mM ATP, 3-hour incubation
T2 construct: G556E with a; purchased Carna Biosciences
Procedure: Biochemical assay for GCN2
Activity of GCN2 kinase was determined using a TR-FRET kinase activity assay (e.g., Analytical Biochemistry, 2006, 356, 108-116). Assays were conducted in 384-well plates (13 μL assay volume) using 2 nM GCN2 (Carna Biosciences), 130 nM GFP-EIf2α (Invitrogen), 0.2 mg/mL E. coli tRNA (sigma) and 1 mM ATP in kinase buffer (Invitrogen). Inhibition of GCN2 was measured by adding serial diluted test compound (final assay concentration of 0.5% DMSO) followed by a 3-hour incubation. Tb-peIF2α (pSer52) antibody (Invitrogen) (2 nM final assay concentration) in kinase buffer containing EDTA (final assay concentration of 20 mM) was added. After a 60 min incubation at room temperature, TR-FRET was monitored using an excitation wavelength of 340 nm and emission wavelengths of 490 nm and 520 nm. The emission ratio (520/490) at each compound concentration of was converted to percent inhibition using controls (i.e., reaction with no test compound and reaction with a known inhibitor) and IC50 values were calculated by fitting a four-parameter sigmoidal curve to the data using Prism (GraphPad software).

T1 sequence (Q9NZJ5 with tags, fused parts or gaps A704S): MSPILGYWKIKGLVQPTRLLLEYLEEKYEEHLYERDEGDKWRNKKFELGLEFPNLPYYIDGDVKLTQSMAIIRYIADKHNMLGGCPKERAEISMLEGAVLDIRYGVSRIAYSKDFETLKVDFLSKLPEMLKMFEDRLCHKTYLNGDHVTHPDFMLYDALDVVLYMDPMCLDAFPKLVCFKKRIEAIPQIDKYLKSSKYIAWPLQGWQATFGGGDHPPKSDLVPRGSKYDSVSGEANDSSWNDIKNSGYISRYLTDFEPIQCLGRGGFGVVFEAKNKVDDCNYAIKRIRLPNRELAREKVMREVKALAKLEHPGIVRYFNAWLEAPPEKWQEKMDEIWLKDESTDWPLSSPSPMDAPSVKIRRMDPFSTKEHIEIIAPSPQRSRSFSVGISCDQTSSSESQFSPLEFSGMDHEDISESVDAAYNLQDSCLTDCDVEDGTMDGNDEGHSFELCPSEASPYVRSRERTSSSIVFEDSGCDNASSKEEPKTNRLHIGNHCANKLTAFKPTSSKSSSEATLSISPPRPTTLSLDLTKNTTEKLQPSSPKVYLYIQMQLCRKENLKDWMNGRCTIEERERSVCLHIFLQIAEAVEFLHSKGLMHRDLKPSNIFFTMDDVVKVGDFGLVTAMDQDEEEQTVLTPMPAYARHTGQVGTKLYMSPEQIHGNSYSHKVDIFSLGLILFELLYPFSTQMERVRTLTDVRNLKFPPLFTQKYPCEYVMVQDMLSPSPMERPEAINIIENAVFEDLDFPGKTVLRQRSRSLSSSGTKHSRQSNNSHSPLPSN

SMILES | IC50 [1] [nM] | IC50 [2] [nM] | IC50 (PERK kinase) [nM] | IC50 (GCN2 kinase) [nM]
Cn1cc(-c2cccc(NS(=O)(=O)c3ccc(Cl)c(CO)c3F)c2F)c2c(N)ncnc21 [Example 5] | 1000 to 10000 | 1000 to 10000 | 500 to 1000 | 1000 to 10000
Cc1c(CO)cc(F)cc1S(=O)(=O)Nc1cccc(-c2nc(C)n3ccnc(N)c23)c1F [Example 6] | 1000 to 10000 | 1000 to 10000 | ≤ 100 | 1000 to 10000
Cc1nc(-c2cccc(NS(=O)(=O)c3cc(Cl)cc(CO)c3F)c2F)c2c(N)nccn12 [Example 7] | 1000 to 10000 | 1000 to 10000 | ≤ 100 | 500 to 1000
Cc1nc(-c2cccc(NS(=O)(=O)c3cc(F)cc(CO)c3Cl)c2F)c2c(N)nccn12 [Example 8] | 100 to 500 | 500 to 1000 | ≤ 100 | 500 to 1000
Cn1cc(-c2cccc(NS(=O)(=O)c3cc(CO)c(F)cc3F)c2F)c2c(N)ncnc21 [Example 10] | 1000 to 10000 | 1000 to 10000 | 100 to 500 | 1000 to 10000
COc1c(CO)cc(Cl)cc1S(=O)(=O)Nc1cccc(-c2nc(C)n3ccnc(N)c23)c1F [Example 11] | 500 to 1000 | 1000 to 10000 | 100 to 500 | 1000 to 10000
Cc1nc(-c2cccc(NS(=O)(=O)c3cc(F)cc(CO)c3F)c2F)c2c(N)nccn12 [Example 15] | 1000 to 10000 | 1000 to 10000 | 100 to 500 | 1000 to 10000
COCCNc1nc(-c2cccc(NS(=O)(=O)c3cc(Cl)cc(CO)c3Cl)c2F)c2c(N)nccn12 [Example 23] | 100 to 500 | 100 to 500 | ≤ 100 | 100 to 500
Cn1cc(-c2cccc(NS(=O)(=O)c3ccc(F)c(CO)c3Cl)c2F)c2c(N)ncnc21 [Example 24] | 1000 to 10000 | 1000 to 10000 | 100 to 500 | 1000 to 10000
CCNc1nc(-c2cccc(NS(=O)(=O)c3cc(Cl)cc(CO)c3Cl)c2F)c2c(N)nccn12 [Example 27] | 100 to 500 | 100 to 500 | ≤ 100 | ≤ 100
COc1ncc(Cl)cc1S(=O)(=O)Nc1cc(F)c(F)c(-c2nc(C)n3ccnc(N)c23)c1 [Example 28] | 1000 to 10000 | 1000 to 10000 | 500 to 1000 | 1000 to 10000
CCC(C)(C)C(=O)OCc1cc(Cl)cc(S(=O)(=O)Nc2cccc(-c3nc(C)n4ccnc(N)c34)c2F)c1Cl [Example 29] | 1000 to 10000 | 1000 to 10000 | 1000 to 10000 | 1000 to 10000
CC(=O)OCc1cc(Cl)cc(S(=O)(=O)Nc2cccc(-c3nc(C(C)(C)C)n4ccnc(N)c34)c2F)c1Cl [Example 30] | 1000 to 10000 | 1000 to 10000 | 100 to 500 | 1000 to 10000
Cc1nc(-c2cccc(NS(=O)(=O)c3cc(Cl)cc(COC(=O)C4CC4)c3Cl)c2F)c2c(N)nccn12 [Example 31] | 1000 to 10000 | 1000 to 10000 | 1000 to 10000 | 1000 to 10000
